In publication PMC10227015, “From a drug repositioning to a structure-based drug design approach to tackle acute lymphoblastic leukemia” (Nature Communications, 2023):
Where “and” joins values, the source holds several entries; their conditions need not be identical. Equal entries are not always repeated.

Key:
DYRK1B = target: T1, DYRK1B (Homo sapiens, UniProt Q9Y463); test: KINOMEscan competition binding; conditions: OR0642 1 µM; read-out: %Control
T1 construct: purchased Eurofins DiscoverX (KINOMEscan scanEDGE 97)
Protocol: (§1) Kinome profiling was provided by Eurofins DiscoverX Corporation. Determination of the % control activity for 97 kinases was obtained through an active site-directed competition binding assay that quantitatively measure interactions between compound and kinases. OR0642 was used at 1 μM.
(§2) Supplementary Table 3. KINOMEscan™ Profiling of OR0642. Competition binding assay to
(§3) quantitatively measure interactions between OR0642 (1 µM) and 97 human kinases and disease
(§4) relevant mutant variants.

CDK2 = target: T2, CDK2 (Homo sapiens, UniProt P24941); test: KINOMEscan competition binding; conditions: OR0642 1 µM; read-out: %Control
T2 construct: purchased Eurofins DiscoverX (KINOMEscan scanEDGE 97)
Protocol: as §1, §2, §3, §4

JNK1 = target: T3, JNK1 (Homo sapiens, UniProt P45983); test: KINOMEscan competition binding; conditions: OR0642 1 µM; read-out: %Control
T3 construct: purchased Eurofins DiscoverX (KINOMEscan scanEDGE 97)
Protocol: as §1, §2, §3, §4

FLT3 = target: T4, FLT3 (Homo sapiens, UniProt P36888); test: KINOMEscan competition binding; conditions: OR0642 1 µM; read-out: %Control
T4 construct: purchased Eurofins DiscoverX (KINOMEscan scanEDGE 97)
Protocol: as §1, §2, §3, §4

PDPK1 = target: T5, PDPK1 (Homo sapiens, UniProt O15530); test: KINOMEscan competition binding; conditions: OR0642 1 µM; read-out: %Control
T5 construct: purchased Eurofins DiscoverX (KINOMEscan scanEDGE 97)
Protocol: as §1, §2, §3, §4

JNK3 = target: T6, JNK3 (Homo sapiens, UniProt P53779); test: KINOMEscan competition binding; conditions: OR0642 1 µM; read-out: %Control
T6 construct: purchased Eurofins DiscoverX (KINOMEscan scanEDGE 97)
T6 sequence (P53779 whole entry): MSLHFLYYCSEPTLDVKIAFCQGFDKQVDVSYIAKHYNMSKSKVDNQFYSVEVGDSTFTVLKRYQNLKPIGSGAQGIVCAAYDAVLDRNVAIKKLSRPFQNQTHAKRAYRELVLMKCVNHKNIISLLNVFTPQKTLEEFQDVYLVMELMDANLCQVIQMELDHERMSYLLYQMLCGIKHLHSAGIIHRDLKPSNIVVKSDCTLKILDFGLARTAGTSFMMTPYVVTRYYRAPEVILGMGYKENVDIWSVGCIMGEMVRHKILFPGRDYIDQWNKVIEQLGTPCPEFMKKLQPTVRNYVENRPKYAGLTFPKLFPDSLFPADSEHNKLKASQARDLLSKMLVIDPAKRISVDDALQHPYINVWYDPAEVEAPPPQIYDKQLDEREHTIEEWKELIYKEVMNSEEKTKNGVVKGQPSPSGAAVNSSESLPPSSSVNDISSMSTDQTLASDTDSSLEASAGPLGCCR
Protocol: as §1, §2, §3, §4

INSR = target: T7, INSR (Homo sapiens, UniProt P06213); test: KINOMEscan competition binding; conditions: OR0642 1 µM; read-out: %Control
T7 construct: purchased Eurofins DiscoverX (KINOMEscan scanEDGE 97)
T7 sequence (P06213 28-1382): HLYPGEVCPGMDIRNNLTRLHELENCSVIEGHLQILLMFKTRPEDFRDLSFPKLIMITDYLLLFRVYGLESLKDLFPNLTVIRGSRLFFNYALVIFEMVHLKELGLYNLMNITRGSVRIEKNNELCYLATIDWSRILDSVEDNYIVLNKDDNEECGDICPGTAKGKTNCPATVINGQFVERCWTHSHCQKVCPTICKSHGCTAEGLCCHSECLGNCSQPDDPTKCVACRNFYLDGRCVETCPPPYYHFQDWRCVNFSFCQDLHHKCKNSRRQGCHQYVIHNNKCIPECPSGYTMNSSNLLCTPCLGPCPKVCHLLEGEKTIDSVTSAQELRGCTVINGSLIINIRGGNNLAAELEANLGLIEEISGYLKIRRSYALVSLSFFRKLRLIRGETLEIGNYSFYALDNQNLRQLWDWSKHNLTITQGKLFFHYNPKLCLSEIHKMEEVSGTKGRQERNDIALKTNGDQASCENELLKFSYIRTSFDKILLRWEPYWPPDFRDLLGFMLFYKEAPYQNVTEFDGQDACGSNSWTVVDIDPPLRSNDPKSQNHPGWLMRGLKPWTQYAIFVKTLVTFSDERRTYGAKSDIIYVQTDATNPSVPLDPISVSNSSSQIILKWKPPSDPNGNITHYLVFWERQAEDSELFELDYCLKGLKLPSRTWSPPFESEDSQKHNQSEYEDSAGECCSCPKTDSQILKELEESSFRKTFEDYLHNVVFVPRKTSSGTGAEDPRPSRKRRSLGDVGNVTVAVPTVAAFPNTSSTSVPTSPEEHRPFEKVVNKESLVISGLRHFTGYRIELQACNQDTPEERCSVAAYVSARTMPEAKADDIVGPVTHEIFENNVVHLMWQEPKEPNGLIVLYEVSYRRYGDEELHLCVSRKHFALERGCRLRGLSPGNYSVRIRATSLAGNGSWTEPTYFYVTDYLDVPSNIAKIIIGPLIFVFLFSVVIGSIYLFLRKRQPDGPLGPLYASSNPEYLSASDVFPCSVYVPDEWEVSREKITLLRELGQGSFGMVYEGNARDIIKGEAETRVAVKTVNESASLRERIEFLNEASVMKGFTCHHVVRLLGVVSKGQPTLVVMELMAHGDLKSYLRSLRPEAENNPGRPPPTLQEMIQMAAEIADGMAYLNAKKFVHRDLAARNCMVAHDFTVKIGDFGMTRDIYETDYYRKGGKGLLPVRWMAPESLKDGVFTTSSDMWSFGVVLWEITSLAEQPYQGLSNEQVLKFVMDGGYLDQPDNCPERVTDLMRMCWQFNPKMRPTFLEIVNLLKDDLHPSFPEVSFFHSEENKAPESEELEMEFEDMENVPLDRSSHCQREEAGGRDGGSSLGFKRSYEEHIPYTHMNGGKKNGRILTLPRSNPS
Protocol: as §1, §2, §3, §4

AURKB = target: T8, AURKB (Homo sapiens, UniProt Q96GD4); test: KINOMEscan competition binding; conditions: OR0642 1 µM; read-out: %Control
T8 construct: purchased Eurofins DiscoverX (KINOMEscan scanEDGE 97)
Protocol: as §1, §2, §3, §4

JNK2 = target: T9, JNK2 (Homo sapiens, UniProt P45984); test: KINOMEscan competition binding; conditions: OR0642 1 µM; read-out: %Control
T9 construct: purchased Eurofins DiscoverX (KINOMEscan scanEDGE 97)
T9 sequence (P45984 whole entry): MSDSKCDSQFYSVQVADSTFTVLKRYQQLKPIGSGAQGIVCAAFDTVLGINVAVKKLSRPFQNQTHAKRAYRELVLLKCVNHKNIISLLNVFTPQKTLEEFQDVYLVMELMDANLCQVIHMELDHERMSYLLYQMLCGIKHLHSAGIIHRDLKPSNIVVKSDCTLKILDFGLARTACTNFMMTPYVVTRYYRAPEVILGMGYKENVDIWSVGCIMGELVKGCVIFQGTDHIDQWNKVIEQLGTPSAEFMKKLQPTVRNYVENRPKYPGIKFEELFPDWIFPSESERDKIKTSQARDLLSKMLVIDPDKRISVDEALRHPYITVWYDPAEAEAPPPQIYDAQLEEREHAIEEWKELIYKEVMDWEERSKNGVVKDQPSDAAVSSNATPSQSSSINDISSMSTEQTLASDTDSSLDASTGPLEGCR
Protocol: as §1, §2, §3, §4

PAK4 = target: T10, PAK4 (Homo sapiens, UniProt O96013); test: KINOMEscan competition binding; conditions: OR0642 1 µM; read-out: %Control
T10 construct: purchased Eurofins DiscoverX (KINOMEscan scanEDGE 97)
Protocol: as §1, §2, §3, §4

ABL1-phosphorylated = target: T11, ABL1-phosphorylated (Homo sapiens, UniProt P00519); test: KINOMEscan competition binding; conditions: OR0642 1 µM; read-out: %Control
T11 construct: purchased Eurofins DiscoverX (KINOMEscan scanEDGE 97)
Protocol: as §1, §2, §3, §4

CDK7 = target: T12, CDK7 (Homo sapiens, UniProt P50613); test: KINOMEscan competition binding; conditions: OR0642 1 µM; read-out: %Control
T12 construct: purchased Eurofins DiscoverX (KINOMEscan scanEDGE 97)
Protocol: as §1, §2, §3, §4

KIT(V559D,T670I) = target: T13, KIT(V559D,T670I) (Homo sapiens, UniProt P10721, T670I/V559D); test: KINOMEscan competition binding; conditions: OR0642 1 µM; read-out: %Control
T13 construct: purchased Eurofins DiscoverX (KINOMEscan scanEDGE 97)
Protocol: as §1, §2, §3, §4

ERBB2 = target: T14, ERBB2 (Homo sapiens, UniProt P04626); test: KINOMEscan competition binding; conditions: OR0642 1 µM; read-out: %Control
T14 construct: purchased Eurofins DiscoverX (KINOMEscan scanEDGE 97)
Protocol: as §1, §2, §3, §4

MARK3 = target: T15, MARK3 (Homo sapiens, UniProt P27448); test: KINOMEscan competition binding; conditions: OR0642 1 µM; read-out: %Control
T15 construct: purchased Eurofins DiscoverX (KINOMEscan scanEDGE 97)
Protocol: as §1, §2, §3, §4

IKK-beta = target: T16, IKK-beta (Homo sapiens, UniProt O14920); test: KINOMEscan competition binding; conditions: OR0642 1 µM; read-out: %Control
T16 construct: purchased Eurofins DiscoverX (KINOMEscan scanEDGE 97)
T16 sequence (O14920 whole entry): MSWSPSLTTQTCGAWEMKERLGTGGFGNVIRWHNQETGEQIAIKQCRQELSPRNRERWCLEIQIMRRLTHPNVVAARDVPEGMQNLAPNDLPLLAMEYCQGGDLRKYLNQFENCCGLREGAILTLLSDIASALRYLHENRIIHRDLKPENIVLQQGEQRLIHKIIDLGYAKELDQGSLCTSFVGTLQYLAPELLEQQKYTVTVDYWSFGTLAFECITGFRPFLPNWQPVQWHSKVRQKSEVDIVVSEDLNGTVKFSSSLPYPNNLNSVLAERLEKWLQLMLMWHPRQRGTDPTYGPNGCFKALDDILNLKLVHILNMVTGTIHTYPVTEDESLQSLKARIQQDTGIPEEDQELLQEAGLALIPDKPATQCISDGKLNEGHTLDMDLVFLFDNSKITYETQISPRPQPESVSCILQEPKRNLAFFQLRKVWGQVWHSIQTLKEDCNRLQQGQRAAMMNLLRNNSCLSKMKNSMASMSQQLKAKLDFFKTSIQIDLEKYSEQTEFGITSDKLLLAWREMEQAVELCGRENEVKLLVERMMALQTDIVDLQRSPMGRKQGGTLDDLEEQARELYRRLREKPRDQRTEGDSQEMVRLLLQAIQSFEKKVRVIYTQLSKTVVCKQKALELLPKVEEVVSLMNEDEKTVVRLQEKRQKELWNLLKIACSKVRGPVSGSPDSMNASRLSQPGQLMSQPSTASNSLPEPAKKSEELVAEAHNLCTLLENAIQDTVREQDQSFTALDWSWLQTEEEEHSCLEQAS
Protocol: as §1, §2, §3, §4

EGFR = target: T17, EGFR (Homo sapiens, UniProt P00533); test: KINOMEscan competition binding; conditions: OR0642 1 µM; read-out: %Control
T17 construct: purchased Eurofins DiscoverX (KINOMEscan scanEDGE 97)
Protocol: as §1, §2, §3, §4

KIT(D816V) = target: T18, KIT(D816V) (Homo sapiens, UniProt P10721, D816V); test: KINOMEscan competition binding; conditions: OR0642 1 µM; read-out: %Control
T18 construct: purchased Eurofins DiscoverX (KINOMEscan scanEDGE 97)
Protocol: as §1, §2, §3, §4

MLK1 = target: T19, MLK1 (Homo sapiens, UniProt P80192); test: KINOMEscan competition binding; conditions: OR0642 1 µM; read-out: %Control
T19 construct: purchased Eurofins DiscoverX (KINOMEscan scanEDGE 97)
Protocol: as §1, §2, §3, §4

MEK1 = target: T20, MEK1 (Homo sapiens, UniProt Q02750); test: KINOMEscan competition binding; conditions: OR0642 1 µM; read-out: %Control
T20 construct: purchased Eurofins DiscoverX (KINOMEscan scanEDGE 97)
Protocol: as §1, §2, §3, §4

ADCK3 = target: T21, ADCK3 (Homo sapiens, UniProt Q8NI60); test: KINOMEscan competition binding; conditions: OR0642 1 µM; read-out: %Control
T21 construct: purchased Eurofins DiscoverX (KINOMEscan scanEDGE 97)
Protocol: as §1, §2, §3, §4

PDGFRA = target: T22, PDGFRA (Homo sapiens, UniProt P16234); test: KINOMEscan competition binding; conditions: OR0642 1 µM; read-out: %Control
T22 construct: purchased Eurofins DiscoverX (KINOMEscan scanEDGE 97)
Protocol: as §1, §2, §3, §4

CDK3 = target: T23, CDK3 (Homo sapiens, UniProt Q00526); test: KINOMEscan competition binding; conditions: OR0642 1 µM; read-out: %Control
T23 construct: purchased Eurofins DiscoverX (KINOMEscan scanEDGE 97)
T23 sequence (Q00526 whole entry): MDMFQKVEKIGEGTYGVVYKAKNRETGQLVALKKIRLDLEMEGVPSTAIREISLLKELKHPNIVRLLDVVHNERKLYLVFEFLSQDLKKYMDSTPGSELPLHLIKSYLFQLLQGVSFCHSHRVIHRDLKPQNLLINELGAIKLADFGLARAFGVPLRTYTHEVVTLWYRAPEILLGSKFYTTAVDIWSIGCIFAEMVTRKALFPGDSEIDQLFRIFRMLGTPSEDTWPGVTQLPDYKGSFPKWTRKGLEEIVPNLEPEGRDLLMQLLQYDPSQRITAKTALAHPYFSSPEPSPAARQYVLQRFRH
Protocol: as §1, §2, §3, §4

PCTK1 = target: T24, PCTK1 (Homo sapiens, UniProt Q00536); test: KINOMEscan competition binding; conditions: OR0642 1 µM; read-out: %Control
T24 construct: purchased Eurofins DiscoverX (KINOMEscan scanEDGE 97)
Protocol: as §1, §2, §3, §4

PDGFRB = target: T25, PDGFRB (Homo sapiens, UniProt P09619); test: KINOMEscan competition binding; conditions: OR0642 1 µM; read-out: %Control
T25 construct: purchased Eurofins DiscoverX (KINOMEscan scanEDGE 97)
Protocol: as §1, §2, §3, §4

IGF1R = target: T26, IGF1R (Homo sapiens, UniProt P08069); test: KINOMEscan competition binding; conditions: OR0642 1 µM; read-out: %Control
T26 construct: purchased Eurofins DiscoverX (KINOMEscan scanEDGE 97)
Protocol: as §1, §2, §3, §4

EPHA2 = target: T27, EPHA2 (Homo sapiens, UniProt P29317); test: KINOMEscan competition binding; conditions: OR0642 1 µM; read-out: %Control
T27 construct: purchased Eurofins DiscoverX (KINOMEscan scanEDGE 97)
Protocol: as §1, §2, §3, §4

AKT1 = target: T28, AKT1 (Homo sapiens, UniProt P31749); test: KINOMEscan competition binding; conditions: OR0642 1 µM; read-out: %Control
T28 construct: purchased Eurofins DiscoverX (KINOMEscan scanEDGE 97)
T28 sequence (P31749 whole entry): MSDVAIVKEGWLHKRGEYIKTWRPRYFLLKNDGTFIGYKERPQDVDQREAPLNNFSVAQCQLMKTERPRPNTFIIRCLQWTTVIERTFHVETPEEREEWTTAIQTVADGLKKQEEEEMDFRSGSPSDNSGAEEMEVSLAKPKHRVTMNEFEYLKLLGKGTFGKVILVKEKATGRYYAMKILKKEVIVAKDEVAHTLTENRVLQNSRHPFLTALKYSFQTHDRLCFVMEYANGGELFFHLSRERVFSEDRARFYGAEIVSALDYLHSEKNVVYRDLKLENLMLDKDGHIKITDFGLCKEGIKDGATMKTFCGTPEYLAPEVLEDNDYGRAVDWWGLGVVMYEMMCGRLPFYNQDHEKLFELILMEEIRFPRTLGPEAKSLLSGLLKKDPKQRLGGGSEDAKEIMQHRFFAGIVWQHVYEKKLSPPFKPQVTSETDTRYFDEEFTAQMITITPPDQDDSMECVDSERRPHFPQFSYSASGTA
Protocol: as §1, §2, §3, §4

PIK3C2B = target: T29, PIK3C2B (Homo sapiens, UniProt O00750); test: KINOMEscan competition binding; conditions: OR0642 1 µM; read-out: %Control
T29 construct: purchased Eurofins DiscoverX (KINOMEscan scanEDGE 97)
Protocol: as §1, §2, §3, §4

MAP3K4 = target: T30, MAP3K4 (Homo sapiens, UniProt Q9Y6R4); test: KINOMEscan competition binding; conditions: OR0642 1 µM; read-out: %Control
T30 construct: purchased Eurofins DiscoverX (KINOMEscan scanEDGE 97)
Protocol: as §1, §2, §3, §4

FGFR2 = target: T31, FGFR2 (Homo sapiens, UniProt P21802); test: KINOMEscan competition binding; conditions: OR0642 1 µM; read-out: %Control
T31 construct: purchased Eurofins DiscoverX (KINOMEscan scanEDGE 97)
T31 sequence (P21802 22-821): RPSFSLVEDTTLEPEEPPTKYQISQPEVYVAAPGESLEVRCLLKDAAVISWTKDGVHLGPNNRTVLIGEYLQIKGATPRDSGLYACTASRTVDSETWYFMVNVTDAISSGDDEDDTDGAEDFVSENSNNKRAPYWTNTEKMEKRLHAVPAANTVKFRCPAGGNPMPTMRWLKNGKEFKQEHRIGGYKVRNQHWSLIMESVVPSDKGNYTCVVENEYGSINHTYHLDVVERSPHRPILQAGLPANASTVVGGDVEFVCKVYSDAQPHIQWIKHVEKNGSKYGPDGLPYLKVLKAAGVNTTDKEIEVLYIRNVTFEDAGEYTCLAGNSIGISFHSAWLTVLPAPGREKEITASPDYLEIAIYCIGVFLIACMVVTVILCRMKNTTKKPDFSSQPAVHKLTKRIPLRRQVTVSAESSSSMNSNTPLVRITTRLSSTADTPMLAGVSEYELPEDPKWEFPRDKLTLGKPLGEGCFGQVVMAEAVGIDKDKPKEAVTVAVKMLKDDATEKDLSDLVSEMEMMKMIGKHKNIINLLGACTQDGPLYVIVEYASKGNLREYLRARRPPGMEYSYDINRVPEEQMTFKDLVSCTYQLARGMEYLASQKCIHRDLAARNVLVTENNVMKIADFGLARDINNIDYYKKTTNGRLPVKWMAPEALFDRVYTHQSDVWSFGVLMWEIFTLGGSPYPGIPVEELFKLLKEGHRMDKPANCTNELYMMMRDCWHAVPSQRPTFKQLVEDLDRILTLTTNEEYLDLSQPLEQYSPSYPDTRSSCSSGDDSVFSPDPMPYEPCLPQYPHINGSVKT
Protocol: as §1, §2, §3, §4

PIK3CG = target: T32, PIK3CG (Homo sapiens, UniProt P48736); test: KINOMEscan competition binding; conditions: OR0642 1 µM; read-out: %Control
T32 construct: purchased Eurofins DiscoverX (KINOMEscan scanEDGE 97)
Protocol: as §1, §2, §3, §4

FGFR3 = target: T33, FGFR3 (Homo sapiens, UniProt P22607); test: KINOMEscan competition binding; conditions: OR0642 1 µM; read-out: %Control
T33 construct: purchased Eurofins DiscoverX (KINOMEscan scanEDGE 97)
Protocol: as §1, §2, §3, §4

AURKA = target: T34, AURKA (Homo sapiens, UniProt O14965); test: KINOMEscan competition binding; conditions: OR0642 1 µM; read-out: %Control
T34 construct: purchased Eurofins DiscoverX (KINOMEscan scanEDGE 97)
T34 sequence (O14965 whole entry): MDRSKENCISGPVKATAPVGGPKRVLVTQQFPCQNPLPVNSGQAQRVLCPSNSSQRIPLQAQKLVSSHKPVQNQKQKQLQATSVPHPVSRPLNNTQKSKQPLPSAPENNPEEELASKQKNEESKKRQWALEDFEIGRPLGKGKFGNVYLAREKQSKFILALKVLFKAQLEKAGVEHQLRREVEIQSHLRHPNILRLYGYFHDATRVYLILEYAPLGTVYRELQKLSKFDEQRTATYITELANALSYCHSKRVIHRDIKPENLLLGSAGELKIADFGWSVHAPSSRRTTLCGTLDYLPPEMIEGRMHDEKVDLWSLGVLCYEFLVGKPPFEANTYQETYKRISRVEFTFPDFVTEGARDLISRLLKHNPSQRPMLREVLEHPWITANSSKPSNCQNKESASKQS
Protocol: as §1, §2, §3, §4

MEK2 = target: T35, MEK2 (Homo sapiens, UniProt P36507); test: KINOMEscan competition binding; conditions: OR0642 1 µM; read-out: %Control
T35 construct: purchased Eurofins DiscoverX (KINOMEscan scanEDGE 97)
Protocol: as §1, §2, §3, §4

[1] = test system: UPNT525 patient-derived xenograft; test: T-ALL PDX mouse model UPNT525; type: in vivo; parameters: hCD45+ populations determined by flux cytometry at day 19: unit not given here
Protocol: Temperature was maintained between 20 and 24 °C and the hygrometry between 40 and 60%. Sex was not considered in the study design and studies were realized in male mice, as toxicity and pharmacokinetics were performed previously in male mice. […] OR0642 was administered in its hydrochloride salt form (OR0642-HCl). Drug administration protocol is detailed in Fig. 4a. […] Patient-derived xenograft was generated from a primary-T-ALL (UPNT525) sample[28],[29]. Briefly, we injected 1,000,000 cells in 100 μl of PBS by intravenous (IV) retro orbital injection in NSG mice. […] Drug administration protocol is detailed in Fig. 5d. Disease propagation was monitored at day 19 by hCD45 detection in peripheral blood. […] Figures exemplifying the gating strategy are provided in the Supplementary Information (Supplementary Figs. 32 and 33).

[2] = PDX mouse model UPNT525, dT 1,5 g/Kg, individual mice

CCCN(c1nc(-c2nc(N)cc(N)n2)cs1)c1cc(-c2ccc(S(=O)(=O)N3CCN(C)CC3)cc2C(F)(F)F)ccc1C [OR0642]
remaining binding at 1 µM (DYRK1B): 100% | remaining binding at 1 µM (CDK2): 100% | remaining binding at 1 µM (JNK1): 93% | remaining binding at 1 µM (FLT3): 100% | remaining binding at 1 µM (PDPK1): 98% | remaining binding at 1 µM (JNK3): 81% | remaining binding at 1 µM (INSR): 99% | remaining binding at 1 µM (AURKB): 85% | remaining binding at 1 µM (JNK2): 84% | remaining binding at 1 µM (PAK4): 91% | remaining binding at 1 µM (ABL1-phosphorylated): 99% | remaining binding at 1 µM (CDK7): 94% | remaining binding at 1 µM (KIT(V559D,T670I)): 100% | remaining binding at 1 µM (ERBB2): 100% | remaining binding at 1 µM (MARK3): 100% | remaining binding at 1 µM (IKK-beta): 90% | remaining binding at 1 µM (EGFR): 82% | remaining binding at 1 µM (KIT(D816V)): 94% | remaining binding at 1 µM (MLK1): 91% | remaining binding at 1 µM (MEK1): 97% | remaining binding at 1 µM (ADCK3): 95% | remaining binding at 1 µM (PDGFRA): 97% | remaining binding at 1 µM (CDK3): 97% | remaining binding at 1 µM (PCTK1): 98% | remaining binding at 1 µM (PDGFRB): 100% | remaining binding at 1 µM (IGF1R): 93% | remaining binding at 1 µM (EPHA2): 90% | remaining binding at 1 µM (AKT1): 91% | remaining binding at 1 µM (PIK3C2B): 100% | remaining binding at 1 µM (MAP3K4): 97% | remaining binding at 1 µM (FGFR2): 89% | remaining binding at 1 µM (PIK3CG): 100% | remaining binding at 1 µM (FGFR3): 79% | remaining binding at 1 µM (AURKA): 96% | remaining binding at 1 µM (MEK2): 96%

Cc1cn([C@H]2C[C@H](O)[C@@H](CO)O2)c(=O)[nH]c1=O [dT, thymidine]
Survival days [1, 2]: 26 days and 38 days and 42 days | hCD45+ populations determined by flux cytometry at day 19 [1, 2]: 164 and 330 and 108 and 177 and 168 and 318 | median survival ([1]; dT 1.5 g/kg, OR0642 40 mg/kg IP BID 5 days a week): 38 days | effect on disease progression ([1]; day 19): significant decrease in disease progression
